SMILES strings stand for the structures.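 Compound exposure: 48 hours, 5 concentrations, 96-well plates. Abbreviation: GI50, concentration required for 50% inhibition of growth. TGI marks complete inhibition of growth.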 A value given as a limit tells only on which side of the number the result lay.

Among the test systems are A498 renal; CCRF-CEM leukemia; DMS 114 small cell lung; HCT-15 colon; HOP-18 NSCLC; LOX IMVI melanoma; MCF7 breast; NCI-H460 lung; NCI-H522 lung; RPMI-8226 leukemia; M14 melanoma; MALME-3M melanoma.
Holding throughout (test): NCI-60 cell line screen, 48 h

`Oc1c(Br)cc2c(c1Br)-c1c(c(O)c3c4c1=NCCC=4C=N3)NCC2`: the TGI with A498 renal was determined as 45.7 µM; in the test on CCRF-CEM leukemia, 9.49 µM; in the test with DMS 114 small cell lung it was 9.76 µM; in the test with HCT-15 colon, 30.6 µM; with HOP-18 NSCLC, 35.6 µM; with LOX IMVI melanoma, 20.9 µM. In addition, the TGI amounted to 22.2 µM in the test with MCF7 breast, 27.9 µM in the test on NCI-H460 lung, 5.52 µM in the test on NCI-H522 lung and 29.8 µM with RPMI-8226 leukemia.
On to `N#C[S-].[La+3].c1ccc(-c2ccccn2)nc1.c1ccc(-c2ccccn2)nc1.c1ccc(-c2ccccn2)nc1`, for which the GI50 was 26.1 µM with DMS 114 small cell lung; 7.07 µM in the test on HCT-15 colon; 27.1 µM in the test on HOP-18 NSCLC; 7.3 µM in the test with LOX IMVI melanoma; 12.1 µM in the test with M14 melanoma; 23.3 µM with MALME-3M melanoma. Moreover, in the test on NCI-H460 lung, the GI50 was 22.5 µM. Besides, the TGI in the test with DMS 114 small cell lung was 97.2 µM; in the test on HCT-15 colon, greater than 100 µM; in the test with HOP-18 NSCLC, greater than 100 µM; in the test on LOX IMVI melanoma, 68.3 µM; in the test on M14 melanoma, 27.9 µM; in the test with MALME-3M melanoma, 60.9 µM. For the same compound, in the test on NCI-H460 lung, the TGI came out at 88.2 µM.
Regarding `Brc1ccc2[nH]c3c(C4=NCCC4)nccc3c2c1`, the TGI in the test on A498 renal was greater than 49.2 µM; in the test with CCRF-CEM leukemia, greater than 30.1 µM; in the test with DMS 114 small cell lung, greater than 57.8 µM; with HCT-15 colon, greater than 69.2 µM; in the test on HOP-18 NSCLC, greater than 85.8 µM; in the test on LOX IMVI melanoma, greater than 46.6 µM. The TGI in the test on MALME-3M melanoma was 16.1 µM; with MCF7 breast, greater than 47.6 µM; in the test with NCI-H460 lung, greater than 32.8 µM; in the test with NCI-H522 lung, greater than 100 µM; in the test with RPMI-8226 leukemia, greater than 36 µM.
Turning to `Clc1cc(N/N=C(\c2ccccc2)c2ccccn2)ncn1`, the TGI in the test on CCRF-CEM leukemia was 1.3 µM; in the test with LOX IMVI melanoma it was 1.74 µM; with M14 melanoma, greater than 100 µM; in the test on MALME-3M melanoma, 3.35 µM; in the test on NCI-H460 lung, 83.1 µM; with RPMI-8226 leukemia, 1.92 µM.
For the compound `Cc1c2cc[n+](Cc3ccc(I)cc3)cc2c(C)c2c1[nH]c1ccccc12`, the TGI is greater than 25 µM in the test on A498 renal; 9.51 µM with CCRF-CEM leukemia; 2.63 µM in the test with DMS 114 small cell lung; greater than 25 µM with HCT-15 colon; greater than 13.2 µM with HOP-18 NSCLC; greater than 25 µM in the test on LOX IMVI melanoma. Besides, the TGI in the test on MALME-3M melanoma was determined as 1.81 µM; with MCF7 breast it was 3.06 µM; with NCI-H460 lung, 1.93 µM; in the test on NCI-H522 lung, 5.59 µM; in the test with RPMI-8226 leukemia, 2.4 µM.
In the case of `O=c1cc(-c2cccc(OC(F)(F)F)c2)[nH]c2ccc(N3CCCC3)cc12`, the TGI in the test with CCRF-CEM leukemia, in the test on M14 melanoma, with MALME-3M melanoma and with MCF7 breast was greater than 100 µM throughout. The GI50 in the test with MCF7 breast is 0.0385 µM.

The values above are taken from PubChem BioAssay (NCI).
